Source: US20070032418A1, “Small-molecule inhibitors of angiogenin and rnases and in vivo and in vitro methods of using same” (Ambion, Inc, priority 2003, published 2007)
Entries after “also recorded” stand apart in the source; their conditions may differ. Like-named read-outs stand apart in the source and are kept apart here.

What was measured:
[1] = test system: PC-3 human prostate tumor cells; experiment: PC-3 tumor formation in athymic mice; assay type: in vivo
Procedure: Compound NCI-65828 was identified by HTS as an ANG inhibitor. […] Each compound was administered 6 times per week, in doses of 40 μg, 8 μg, and 1.6 μg (about 2, 0.4 and 0.08 mg/kg/day). The compound was dissolved in DMSO, and control mice received a corresponding volume of DMSO (4%, 0.8% and 0%). Another control group received saline.
Another in vivo mouse experiment was performed using 8 or 12 mice per group. The experimental group was administered PC-3 cells and NCI-65828, as intraperitoneal injections (40 μg and 8 μg). A control group of mice was administered PC-3 cells and a related compound that was known to be ineffective at inhibiting ANG enzymatic activity. Mice were evaluated for number of animals that remained tumor free as a function of time, at intervals of 3 days from days 14-42 following the initial injection.
Concentrated stocks of inhibitors were prepared in dimethylsulfoxide (DMSO), and the inhibitors were diluted into phosphate-buffered saline (PBS); the final DMSO concentration for the 40 μg and 20 μg doses was 4% in PBS, and that for the 8 μg and 4 μg doses was 0.8% in PBS. Statistical significance (P values) was determined from Mantel-Cox tests performed on Kaplan-Meier survivor functions. Results for inhibitor-treated groups were compared to results obtained with the appropriate DMSO control groups. A positive control group of mice, administered antisense DNA specific for the ANG gene in PBS (no DMSO), was also included. ANG antisense DNA was shown previously to be extremely effective in this tumor model.
Tumor cells from a human prostate cancer (PC-3) were injected subcutaneously (s.c.) in the shoulder of 6-7 week old athymic (nude) mice on day 0. Treatment with the indicated amount of inhibitor (in 100 μL) was given subcutaneously in the same area as the cells, 6 times per week, with the first injection 5-10 minutes prior to injection of the cells. The total dosage was 0.4 mg to 2 mg per kg per day.

[2] = test system: HT-29 human colonic adenocarcinoma cells; experiment: HT-29 tumor formation in athymic mice; assay type: in vivo; details: local treatment s.c. 40 μg/day, 6×/week
Procedure: Mice were examined 2×/week for palpable tumors. Treatment doses: 40 μg/day (A and C); 8 μg/day (B). n=8 for all groups except the vehicle controls in A and B, where n=12.

angiogenin (ANG) = angiogenin (ANG) (Homo sapiens, UniProt P03950); experiment: Inhibition of ANG ribonucleolytic activity, HPLC assay of oligonucleotide cleavage; assay type: biochemical; details: 20 mM Hepes, 100 mM NaCl
Procedure: Reaction mixtures with and without test compounds were chromatographed on a Mono Q anion-exchange column with an NaCl gradient in 10 mM Tris, pH 8. […] This information was used to calculate kcat/Km values, which were then fitted to the equation (kcat/Km)i=(kcat/Km)0/[…], where (kcat/Km)i and (kcat/Km)0 are defined as the values in the presence and absence of inhibitor, respectively, and [I] is defined as the inhibitor concentration. At least four concentrations (in a range of about 10 μM-above 100 μM) were used in the final hit confirmation in order to distinguish all true hits.
Chemical structures of selected compounds are shown in these Tables and in FIGS. 4 and 5.

[3] = PC-3 s.c., 8 μg s.c. 6 times per week
[4] = PC-3 s.c., 40 μg s.c. 6 times per week

angiogenin (ANG), sequence (P03950 25-147): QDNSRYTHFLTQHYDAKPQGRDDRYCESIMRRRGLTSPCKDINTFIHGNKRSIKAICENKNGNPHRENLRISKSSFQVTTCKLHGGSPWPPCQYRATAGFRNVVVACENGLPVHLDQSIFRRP

Ki (angiogenin (ANG); pH 7.0, 37° C., read-out: Ki for inhibition of the ribonucleolytic activity of angiogenin): 81 µM
Ki (angiogenin (ANG); inhibition of ANG-catalyzed cleavage of an RNA oligonucleotide, 37° C., read-out: KI): 81 µM
SMILES: Nc1ccc(/N=N/c2ccc(-c3ccc(O)cc3)cc2)c2ccc(S(=O)(=O)O)cc12 [NCI-65828, 8-amino-5-(4′-hydroxybiphenyl-4-ylazo)naphthalene-2-sulfonate]
Appearance of tumors (FIGS. 1A and 1B) ([1]; PC-3, 40 μg and 8 μg, days 14-42, vs controls): delay or prevention; also recorded: delayed the appearance of tumors
Rate of tumor development (preliminary test) ([1]; PC-3, s.c. 6 times per week, doses of 40 μg, 8 μg and 1.6 μg, vs control groups): developed tumors at a slower rate
Percentage of Tumor-Bearing Mice, day 14 [1, 3]: 0%
Percentage of Tumor-Bearing Mice, day 17 [1, 3]: 38%
Percentage of Tumor-Bearing Mice, day 21 [1, 3]: 50%
Percentage of Tumor-Bearing Mice, day 24 [1, 3]: 100%
Percentage of Tumor-Bearing Mice, day 32 [1, 3]: 100%
Percentage of Tumor-Bearing Mice, day 35 [1, 3]: 100%
Percentage of Tumor-Bearing Mice, day 14 [1, 4]: 0%
Percentage of Tumor-Bearing Mice, day 17 [1, 4]: 25%
Percentage of Tumor-Bearing Mice, day 21 [1, 4]: 50%
Percentage of Tumor-Bearing Mice, day 24 [1, 4]: 100%
Percentage of Tumor-Bearing Mice, day 32 [1, 4]: 100%
Percentage of Tumor-Bearing Mice, day 35 [1, 4]: 100%
Time of appearance of tumors (Example 3, Table 1) ([1]; PC-3 s.c., treatment s.c. 6 times per week): delayed considerably the time of appearance of tumors
Formation of tumors (FIG. 1C) [2]: delay or prevention; also recorded: significantly delayed the formation of tumors
